From patent publication US12391682B2, “Isoquinoline derivatives and their use for the treatment of parasitic infections” (Elanco Animal Health GmbH, priority 2019, dated 2025)
pEC50: −log10 of the molar value.

Tests used:
[1] = tested on: Adult Nippostrongylus brasiliensis; assay: In Vitro Assay 3: Nippostrongylus brasiliensis (NIPOBR), acetylcholine esterase readout; settings: at 10 μg/ml (10 ppm), adult worms, read-out: activity (reduction of AChE compared to negative control)
Procedure: In Vitro Assay 3: Nippostrongylus brasiliensis (NIPOBR)
Adult Nippostrongylus brasiliensis were washed with saline buffer containing 100 U/ml penicillin, 0.1 mg/ml streptomycin and 2.5 μg/ml amphotericin B. Test compounds were dissolved in DMSO and worms were incubated in medium in a final concentration of 10 μg/ml (10 ppm). An aliquot of the medium was used to determine the acetylcholine esterase activity in comparison to a negative control. The principle of measuring acetylcholine esterase as readout for anthelmintic activity was described in Rapson et al (1986) and Rapson et al (1987).

D. immitis Slo-1 = D. immitis Slo-1 (Dirofilaria immitis, UniProt I0DFK5); assay: In Vitro Assay 2: D. immitis Slo-1, membrane potential measurement in stable recombinant CHO cell line; assay type: cell-based
Dirofilaria immitis = assay: In Vitro Assay 5: Dirofilaria immitis (DIROIM L4), motility; settings: 72 h, read-out: EC50 (reduction of motility in comparison to the negative control)
[2] = tested on: Dirofilaria immitis microfilariae; assay: In Vitro Assay 4: Dirofilaria immitis microfilariae (DIROIM L1), motility; settings: 72 h, read-out: EC50 (reduction of motility in comparison to the negative control)
C. elegans Slo-1a = C. elegans Slo-1a (Caenorhabditis elegans, UniProt Q95V25)
Chain of C. elegans Slo-1a (Q95V25 whole entry): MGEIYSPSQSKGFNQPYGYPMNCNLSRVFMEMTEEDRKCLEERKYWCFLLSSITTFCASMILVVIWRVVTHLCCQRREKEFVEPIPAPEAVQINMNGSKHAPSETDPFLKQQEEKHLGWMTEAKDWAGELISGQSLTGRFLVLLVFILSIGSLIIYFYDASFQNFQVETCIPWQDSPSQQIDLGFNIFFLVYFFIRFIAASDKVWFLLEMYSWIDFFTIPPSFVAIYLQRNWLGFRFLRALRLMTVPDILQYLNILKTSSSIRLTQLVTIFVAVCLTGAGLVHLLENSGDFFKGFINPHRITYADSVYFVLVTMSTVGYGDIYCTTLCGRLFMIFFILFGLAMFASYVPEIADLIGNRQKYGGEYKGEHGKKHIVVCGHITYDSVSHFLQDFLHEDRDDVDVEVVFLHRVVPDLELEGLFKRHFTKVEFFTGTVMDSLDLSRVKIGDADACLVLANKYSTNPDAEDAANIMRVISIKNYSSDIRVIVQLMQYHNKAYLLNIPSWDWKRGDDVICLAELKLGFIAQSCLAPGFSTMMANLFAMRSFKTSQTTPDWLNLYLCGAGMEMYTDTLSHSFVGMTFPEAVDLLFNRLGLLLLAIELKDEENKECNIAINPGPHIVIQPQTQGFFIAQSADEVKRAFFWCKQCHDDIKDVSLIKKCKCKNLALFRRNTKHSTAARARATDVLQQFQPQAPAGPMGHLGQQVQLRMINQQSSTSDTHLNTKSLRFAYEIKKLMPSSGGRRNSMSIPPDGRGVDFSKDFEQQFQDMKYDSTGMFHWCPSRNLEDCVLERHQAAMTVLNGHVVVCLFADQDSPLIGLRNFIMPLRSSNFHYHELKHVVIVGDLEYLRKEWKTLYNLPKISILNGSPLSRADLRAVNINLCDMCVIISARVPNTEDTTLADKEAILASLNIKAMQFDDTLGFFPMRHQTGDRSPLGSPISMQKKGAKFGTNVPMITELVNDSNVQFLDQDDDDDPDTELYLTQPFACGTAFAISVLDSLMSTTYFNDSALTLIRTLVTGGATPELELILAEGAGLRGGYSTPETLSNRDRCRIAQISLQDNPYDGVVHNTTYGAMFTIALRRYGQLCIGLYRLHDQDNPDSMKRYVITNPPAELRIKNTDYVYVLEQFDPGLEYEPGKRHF
Procedure: In Vitro Assay 1: C. elegans Slo-1a—Action at a Recombinant C. elegans Cell Line
Generation of a Stable Caenorhabditis elegans CHO Cell Line
A CHO cell line was obtained from ATCC, code ATCC CRL-9096. For transfection with plasmid DNA to express C. elegans Slo-1a (accession number AAL28102)CHO cells were passaged to 40% confluence before adding the transfection solution to the cell culture. The transfection solution included 300 μL OptiMEM (Life Technologies, Nr.: 31985), 2 μL (=6 μg) of plasmid DNA containing the C. elegans Slo 1a gene and 9 μL FugeneHD (Promega, Nr.: E2311), and was added to the cells prior to incubation for 48 hours at 37° C., 5% CO2. The transfection medium was exchanged for the selection medium which contains additional G418 (2 mg/ml, Invitrogen, Nr.: 10131) and the cells were seeded into 384 well plates (300 cells/well). […]
After starting the measurement of fluorescence using a FLIPR Tetra (Molecular Devices, Exc. 510-545 nm, Emm. 565-625 n), test compounds were added followed by the addition of KCl tyrode (final assay concentration: 70 mM KCl, 2 mM CaCl2, 1 mM MgCl2, 0.8 mM NaH2PO4, 5 mM Glucose, 28 mM Hepes, pH 7.4, including the voltage sensitive dye). […]
The data were evaluated by using the ActivityBase XLfit software (IDBS) for curve fitting and calculation of the half-maximal effective concentration (EC50) and are reported as negative decadic logarithm (pE50).

Chain of D. immitis Slo-1 (I0DFK5 1-1119): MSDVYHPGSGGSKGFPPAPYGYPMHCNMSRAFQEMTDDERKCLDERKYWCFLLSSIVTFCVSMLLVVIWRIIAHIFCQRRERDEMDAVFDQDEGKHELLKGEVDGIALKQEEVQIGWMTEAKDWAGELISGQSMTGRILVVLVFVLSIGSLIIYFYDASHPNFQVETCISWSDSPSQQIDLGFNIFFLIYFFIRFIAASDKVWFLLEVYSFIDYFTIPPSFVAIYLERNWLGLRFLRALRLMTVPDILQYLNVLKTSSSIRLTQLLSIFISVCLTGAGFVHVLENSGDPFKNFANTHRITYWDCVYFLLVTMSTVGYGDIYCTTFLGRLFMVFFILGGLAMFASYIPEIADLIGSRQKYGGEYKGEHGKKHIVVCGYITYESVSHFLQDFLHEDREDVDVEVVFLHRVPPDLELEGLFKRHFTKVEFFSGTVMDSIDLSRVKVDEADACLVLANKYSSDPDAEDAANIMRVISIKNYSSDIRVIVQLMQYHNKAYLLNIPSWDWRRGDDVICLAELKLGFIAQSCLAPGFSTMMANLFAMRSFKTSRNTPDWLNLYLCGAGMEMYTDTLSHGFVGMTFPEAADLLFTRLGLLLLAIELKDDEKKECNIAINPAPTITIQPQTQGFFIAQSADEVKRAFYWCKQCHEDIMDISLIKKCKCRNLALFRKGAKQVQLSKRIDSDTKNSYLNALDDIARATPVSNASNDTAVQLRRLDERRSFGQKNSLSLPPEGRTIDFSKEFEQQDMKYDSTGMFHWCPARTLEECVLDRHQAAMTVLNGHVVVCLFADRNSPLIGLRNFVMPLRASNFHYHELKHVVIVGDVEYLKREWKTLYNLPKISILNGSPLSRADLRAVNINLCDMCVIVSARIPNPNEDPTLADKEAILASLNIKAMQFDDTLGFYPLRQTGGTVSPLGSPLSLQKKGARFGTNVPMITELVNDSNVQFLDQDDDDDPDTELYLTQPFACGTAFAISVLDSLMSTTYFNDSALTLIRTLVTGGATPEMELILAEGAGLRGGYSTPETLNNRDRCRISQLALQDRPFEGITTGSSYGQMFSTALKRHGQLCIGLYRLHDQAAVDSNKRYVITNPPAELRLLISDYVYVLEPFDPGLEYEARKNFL

O=C(N[C@H]1CCOc2ccccc21)c1ncc2c(-c3cc(F)cc(F)c3F)cccc2c1N1CCOCC1 [Example I-1, N-[(4S)-3,4-dihydro-2H-chromen-4-yl]-4-(morpholin-4-yl)-8-(2,3,5-trifluorophenyl)isoquinoline-3-carboxamide]
inhibition at 10 µg/mL [1]: > 80%
pEC50 (D. immitis Slo-1): 7.50 to 8.50
EC50 (Dirofilaria immitis): < 0.1 µg/mL
EC50 [2]: < 0.1 µg/mL

Cc1c(C(=O)N[C@H]2CCOc3ccccc32)ncc2c(-c3cc(F)cc(F)c3F)cccc12 [Example I-2, N-[(4S)-3,4-dihydro-2H-chromen-4-yl]-4-methyl-8-(2,3,5-trifluorophenyl)isoquinoline-3-carboxamide]
inhibition at 10 µg/mL [1]: > 80%
pEC50 (D. immitis Slo-1): 5.30 to 6.50
EC50 (Dirofilaria immitis): < 0.1 µg/mL
EC50 [2]: < 0.1 µg/mL

CC(C)c1c(C(=O)N[C@H]2CCOc3ccccc32)ncc2c(-c3cc(F)cc(F)c3F)cccc12 [Example I-3, N-[(4S)-3,4-dihydro-2H-chromen-4-yl]-4-isopropyl-8-(2,3,5-trifluorophenyl)isoquinoline-3-carboxamide]
inhibition at 10 µg/mL [1]: > 80%
pEC50 (D. immitis Slo-1): 6.50 to 7.50
EC50 (Dirofilaria immitis): < 0.1 µg/mL
EC50 [2]: < 0.1 µg/mL

CC(C)c1c(C(=O)N[C@H]2CCOc3ccccc32)ncc2c(-c3cc(Cl)cc(Cl)c3)cccc12 [Example I-4]
inhibition at 10 µg/mL [1]: > 80%
pEC50 (D. immitis Slo-1): 6.50 to 7.50
EC50 (Dirofilaria immitis): < 0.1 µg/mL
EC50 [2]: < 0.1 µg/mL

Cc1c(C(=O)N[C@H]2CCc3ccccc32)ncc2c(-c3cc(F)cc(F)c3F)cccc12 [Example I-7]
inhibition at 10 µg/mL [1]: > 80%
pEC50 (D. immitis Slo-1): 5.30 to 6.50
EC50 (Dirofilaria immitis): < 1 µg/mL
EC50 [2]: < 0.1 µg/mL

O=C(N[C@H]1CCCc2ccccc21)c1ncc2c(-c3cc(Cl)cc(Cl)c3)cccc2c1N1CCOCC1 [Example I-8]
inhibition at 10 µg/mL [1]: > 80%
pEC50 (C. elegans Slo-1a): 7.50 to 8.50
pEC50 (D. immitis Slo-1): 5.30 to 6.50
EC50 (Dirofilaria immitis): < 0.1 µg/mL
EC50 [2]: < 0.1 µg/mL

O=C(N[C@H]1CCCc2ccccc21)c1ncc2c(-c3cc(F)cc(F)c3F)cccc2c1N1CCOCC1 [Example I-9]
inhibition at 10 µg/mL [1]: > 80%
pEC50 (D. immitis Slo-1): 6.50 to 7.50
EC50 (Dirofilaria immitis): < 0.1 µg/mL
EC50 [2]: < 0.1 µg/mL

O=C(N[C@H]1CCOc2ccccc21)c1ncc2c(-c3cc(Cl)cc(Cl)c3)cccc2c1N1CCOCC1 [Example I-11]
inhibition at 10 µg/mL [1]: > 80%
pEC50 (D. immitis Slo-1): 5.30 to 6.50
EC50 (Dirofilaria immitis): < 0.1 µg/mL
EC50 [2]: < 0.1 µg/mL

CC(C)(C)c1cc(Cl)cc(-c2cccc3c(N4CCOCC4)c(C(=O)N[C@H]4CCOc5ccccc54)ncc23)c1 [Example I-12]
inhibition at 10 µg/mL [1]: > 80%
pEC50 (D. immitis Slo-1): 5.30 to 6.50
EC50 (Dirofilaria immitis): < 0.1 µg/mL
EC50 [2]: < 0.1 µg/mL

Cc1c(C(=O)N[C@H]2CCOc3ccccc32)ncc2c(-c3cc(Cl)cc(Cl)c3)cccc12 [Example I-13]
inhibition at 10 µg/mL [1]: > 80%
pEC50 (C. elegans Slo-1a): 6.50 to 7.50
EC50 (Dirofilaria immitis): < 1 µg/mL
EC50 [2]: < 0.1 µg/mL

O=C(NC1CCSc2ccc(F)cc21)c1ncc2c(-c3cc(F)cc(F)c3F)cccc2c1N1CCOCC1 (centres unmarked) [Example I-15]
pEC50 (D. immitis Slo-1): 5.30 to 6.50
EC50 (Dirofilaria immitis): < 0.1 µg/mL
EC50 [2]: < 1 µg/mL

O=C(N[C@H]1CCOc2ccccc21)c1cnc2c(Br)cccc2c1N1CCOCC1 [IC-1, 8-Bromo-N-[(4S)-3,4-dihydro-2H-chromen-4-yl]-4-(morpholin-4-yl)quinoline-3-carboxamide]
EC50 [2]: < 10 µg/mL

Cc1c(C(=O)N[C@H]2CCOc3ccccc32)ncc2c(Br)cccc12 [IC-2, 8-Bromo-N-[(4S)-3,4-dihydro-2H-chromen-4-yl]-4-methylisoquinoline-3-carboxamide]
EC50 [2]: < 10 µg/mL

CC(C)c1c(C(=O)N[C@H]2CCOc3ccccc32)ncc2c(Br)cccc12 [IC-3, 8-Bromo-N-[(4S)-3,4-dihydro-2H-chromen-4-yl]-4-isopropylisoquinoline-3-carboxamide]
EC50 [2]: < 10 µg/mL
